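All cell lines were grown in 96-well plates and treated with compound for 48 hours. GI50 is the concentration that inhibits growth by half.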 Active and inactive are the calls of the source. No stated cut-off is given here; in the data, active = GI50 up to about 1.1 µM and inactive = higher.

Among the test systems are SF-268; OVCAR-4; Malme-3M; A549; MDA-MB-435; HT-29; KM12; ACHN; HOP-62; UO-31; HL-60; DU-145; NCI/ADR-RES; SN12C; HOP-92; NCI-H460; SW-620; SK-OV-3; LOX IMVI; RPMI-8226.
What all share (assay): NCI-60 cell line screen, 48 h

On to `O=C(c1ccc(Cl)c(Cl)c1)N(C(=S)OC12CC3CC(CC(C3)C1)C2)c1ccccc1`, for which the GI50 in the experiment on SF-268 is 40.4 µM (inactive); with OVCAR-4, 38.2 µM (inactive); in the experiment with Malme-3M, 34.9 µM (inactive); in the experiment with A549, 32.2 µM (inactive); in the experiment on MDA-MB-435 it was 30.2 µM (inactive); in the experiment with HT-29, 29.6 µM (inactive). In addition, the GI50 in the experiment with KM12 was 33.7 µM (inactive); with ACHN, 34.8 µM (inactive); with HOP-62 it was 44.6 µM (inactive); with UO-31, 21.1 µM (inactive); with HL-60, 15.8 µM (inactive); in the experiment on DU-145, 83.2 µM (inactive). Moreover, the GI50 with NCI/ADR-RES was 30.1 µM (inactive); with SN12C it was 26.9 µM (inactive); with HOP-92 it was 31.8 µM (inactive); with NCI-H460 it was 37.8 µM (inactive); in the experiment on SW-620 it was 35.2 µM (inactive); in the experiment on SK-OV-3, 36.6 µM (inactive).

Take `CN(C)c1ccc(/C=N/Nc2nc3ccccc3c(=O)n2-c2ccccc2)cc1`: the GI50 in the experiment on SF-268 was 43.5 µM (inactive); with OVCAR-4, 15.9 µM (inactive); in the experiment on Malme-3M, 43.1 µM (inactive); with A549, > 100 µM (inactive); in the experiment with MDA-MB-435, > 100 µM (inactive); in the experiment with HT-29 it was > 100 µM (inactive). For the same compound, the GI50 with KM12 was > 100 µM (inactive); in the experiment with ACHN, 67.3 µM (inactive); in the experiment on HOP-62 it was 33.3 µM (inactive); in the experiment on UO-31 it was > 100 µM (inactive); with HL-60 it was > 100 µM (inactive); in the experiment on DU-145, > 100 µM (inactive). Further, the GI50 is 63.1 µM (inactive) in the experiment with NCI/ADR-RES; > 100 µM (inactive) in the experiment with LOX IMVI; > 100 µM (inactive) in the experiment with SN12C; 31 µM (inactive) in the experiment with HOP-92; > 100 µM (inactive) with NCI-H460; > 100 µM (inactive) in the experiment with SW-620. Also, the GI50 in the experiment with SK-OV-3 is 72.3 µM (inactive).

In the case of `O=C(c1ccccc1)c1ccc(N2C(=O)/C(=C/c3cccc([N+](=O)[O-])c3)N=C2c2ccccc2)c(N2C(=O)/C(=C/c3cccc([N+](=O)[O-])c3)N=C2c2ccccc2)c1`, the GI50 with SF-268 is 62.5 µM (inactive); in the experiment with OVCAR-4, 34.6 µM (inactive); in the experiment with A549, 11 µM (inactive); in the experiment on MDA-MB-435, 4.88 µM (inactive); with HT-29, 41.9 µM (inactive); in the experiment with KM12 it was 11 µM (inactive). For the same compound, the GI50 with ACHN is 53.2 µM (inactive); in the experiment on HOP-62, 75.3 µM (inactive); in the experiment with UO-31 it was 66.7 µM (inactive); in the experiment with HL-60, 0.759 µM (active); in the experiment with DU-145 it was 51.9 µM (inactive); with NCI/ADR-RES, 25.1 µM (inactive). Further, the GI50 in the experiment on LOX IMVI is 42 µM (inactive); in the experiment with SN12C, 98.4 µM (inactive); in the experiment with HOP-92 it was 82.2 µM (inactive); with NCI-H460, 5.28 µM (inactive); in the experiment with SW-620, 32.9 µM (inactive); with RPMI-8226, 12.8 µM (inactive). In addition, the GI50 with SK-OV-3 was > 100 µM (inactive).

With `Cc1[nH]c2[nH]c(=S)nc(NC(N)=S)c2c1Cc1ccccc1`, the GI50 in the experiment with SF-268 was 43.8 µM (inactive); in the experiment with A549, 75.5 µM (inactive); in the experiment on MDA-MB-435 it was 17.3 µM (inactive); with HT-29, 22.3 µM (inactive); in the experiment with KM12, 16.4 µM (inactive); in the experiment on ACHN, > 100 µM (inactive). Besides, the GI50 was 47 µM (inactive) in the experiment on HOP-62; 22.8 µM (inactive) in the experiment on UO-31; 13.6 µM (inactive) in the experiment with HL-60; 49.5 µM (inactive) with DU-145; 48.8 µM (inactive) with NCI/ADR-RES; 19.6 µM (inactive) with LOX IMVI. For the same compound, the GI50 was > 100 µM (inactive) in the experiment with SN12C; > 100 µM (inactive) in the experiment on HOP-92; 48.6 µM (inactive) in the experiment on NCI-H460; 34 µM (inactive) with SW-620; 12.7 µM (inactive) with RPMI-8226; 76 µM (inactive) in the experiment on SK-OV-3.

Regarding `CC12CC3CC/C(=N\O)C(C1)C3(N1CCOCC1)C/C2=N/O` (configuration not stated), the GI50 with SF-268, with OVCAR-4, with Malme-3M, in the experiment with A549, with MDA-MB-435 and in the experiment with HT-29 was > 100 µM (inactive) each time. In addition, the GI50 in the experiment with KM12 is > 100 µM (inactive); in the experiment with ACHN it was > 100 µM (inactive); with HOP-62, > 100 µM (inactive); with UO-31 it was > 100 µM (inactive); in the experiment on HL-60, 49.8 µM (inactive); with DU-145, > 100 µM (inactive). Besides, the GI50 in the experiment with NCI/ADR-RES, with LOX IMVI, with SN12C, with HOP-92, in the experiment with NCI-H460 and with SW-620 was > 100 µM (inactive) each time. Moreover, the GI50 in the experiment on SK-OV-3 was > 100 µM (inactive).

For `Cc1cc2nc(N3C(=O)/C(=C/c4ccc(Cl)cc4)N=C3c3ccccc3)sc2cc1C`, the GI50 in the experiment with SF-268 is 30 µM (inactive); in the experiment with OVCAR-4, 20 µM (inactive); with A549 it was 30 µM (inactive); in the experiment with MDA-MB-435, 8.28 µM (inactive); with HT-29, 23.9 µM (inactive); with KM12, 16.3 µM (inactive). In addition, the GI50 in the experiment on ACHN was 37.7 µM (inactive); in the experiment with HOP-62, 28.9 µM (inactive); in the experiment on UO-31, 26.8 µM (inactive); with HL-60, 21.6 µM (inactive); with DU-145, 50.8 µM (inactive); in the experiment on NCI/ADR-RES, 23.2 µM (inactive). The GI50 with LOX IMVI was 20.5 µM (inactive); with SN12C, 24 µM (inactive); in the experiment on HOP-92, 8.55 µM (inactive); with NCI-H460, 23.7 µM (inactive); in the experiment on SW-620, 27.6 µM (inactive); with RPMI-8226, 35.9 µM (inactive). The GI50 in the experiment with SK-OV-3 is 46.2 µM (inactive).

`CCCCCCCCCCCCCC[C@@H](O)[C@H]1CC[C@H]([C@H]2CC[C@H]([C@H](O)CCCCCC[C@@H](O)CC3=C[C@H](C)OC3=O)O2)O1`: the GI50 in the experiment with SF-268 was > 25 µM (inactive); with OVCAR-4, > 25 µM (inactive); with Malme-3M it was > 25 µM (inactive); in the experiment with A549, > 25 µM (inactive); in the experiment on MDA-MB-435, > 25 µM (inactive); in the experiment on HT-29 it was 1.7 µM (inactive). Besides, the GI50 was > 25 µM (inactive) with KM12; > 25 µM (inactive) in the experiment on ACHN; > 25 µM (inactive) in the experiment with HOP-62; > 25 µM (inactive) in the experiment on UO-31; 2.22 µM (inactive) in the experiment on HL-60; 4.24 µM (inactive) in the experiment with DU-145. In addition, the GI50 in the experiment with NCI/ADR-RES was > 20.1 µM (inactive); with LOX IMVI it was 1.22 µM (inactive); with SN12C it was 2.2 µM (inactive); with HOP-92 it was 3.34 µM (inactive); in the experiment on NCI-H460, 0.0552 µM (active); in the experiment on SW-620, > 25 µM (inactive). Also, in the experiment on SK-OV-3, the GI50 is > 25 µM (inactive).

Consider `Nc1nc(N)c2cc(CNc3ccc(C(=O)NC(CC(=O)O)C(=O)O)c(Cl)c3)ccc2n1` (configuration not stated), for which the GI50 in the experiment on SF-268 was 0.0582 µM (active); in the experiment on OVCAR-4, 153 µM (inactive); with Malme-3M, 0.383 µM (active); with A549, 0.0346 µM (active); in the experiment on MDA-MB-435 it was < 0.01 µM (active); with HT-29 it was < 0.0143 µM (active). The GI50 in the experiment with KM12 was 0.0796 µM (active); in the experiment with ACHN, 0.0253 µM (active); with UO-31 it was 0.918 µM (active); in the experiment with HL-60, 14.3 µM (inactive); in the experiment on DU-145, 0.0501 µM (active); in the experiment on NCI/ADR-RES it was < 0.0282 µM (active). The GI50 is < 0.01 µM (active) in the experiment on LOX IMVI; 0.278 µM (active) in the experiment on SN12C; > 87.5 µM (inactive) in the experiment with HOP-92; 0.0256 µM (active) in the experiment with NCI-H460; < 0.0103 µM (active) in the experiment with SW-620; 6.82 µM (inactive) with SK-OV-3.

On to `COc1ccc(C(CC2(c3ccc(OC)cc3)SCCCS2)NC(C)=O)cc1` (configuration not stated), for which the GI50 in the experiment with SF-268 was 87.3 µM (inactive); with Malme-3M, 86.9 µM (inactive); with A549 it was 55.8 µM (inactive); with MDA-MB-435, 40.7 µM (inactive); with HT-29 it was 65.2 µM (inactive); with KM12 it was 45.4 µM (inactive). In addition, the GI50 is 63 µM (inactive) with ACHN; 47.1 µM (inactive) in the experiment with HOP-62; 96.4 µM (inactive) with UO-31; 18.7 µM (inactive) in the experiment on HL-60; 44.6 µM (inactive) with DU-145; 21.2 µM (inactive) in the experiment with NCI/ADR-RES. In addition, the GI50 was 85.5 µM (inactive) in the experiment on LOX IMVI; 29.6 µM (inactive) with SN12C; 83.6 µM (inactive) in the experiment with HOP-92; 40.7 µM (inactive) with NCI-H460; 47.8 µM (inactive) in the experiment on SW-620; 38.5 µM (inactive) in the experiment on RPMI-8226. Moreover, the GI50 in the experiment with SK-OV-3 was 40.8 µM (inactive).

On to `COc1cc2c(cc1OCCCCOc1cc3nc(C)nc(Cl)c3cc1OC)N=C[C@@H]1CCCN1C2=O`, for which the GI50 in the experiment with SF-268 is 2.74 µM (inactive); with OVCAR-4, 2.84 µM (inactive); in the experiment on Malme-3M, 1.79 µM (inactive); in the experiment with A549 it was 2.79 µM (inactive); in the experiment with MDA-MB-435, 1.62 µM (inactive); with HT-29 it was 2.42 µM (inactive). For the same compound, the GI50 is 1.89 µM (inactive) in the experiment with KM12; 1.94 µM (inactive) in the experiment with ACHN; 2.67 µM (inactive) in the experiment on HOP-62; 1.88 µM (inactive) in the experiment with UO-31; 2.48 µM (inactive) in the experiment with HL-60; 3.22 µM (inactive) with DU-145. Besides, the GI50 was 2.27 µM (inactive) in the experiment on NCI/ADR-RES; 1.27 µM (inactive) with LOX IMVI; 1.93 µM (inactive) with SN12C; 2.02 µM (inactive) in the experiment with HOP-92; 3.4 µM (inactive) with NCI-H460; 2.54 µM (inactive) with SW-620. Moreover, in the experiment with SK-OV-3, the GI50 was 30.4 µM (inactive).

Source of the values: ChEMBL document CHEMBL1201862, “PubChem BioAssay data set” (2004).
